Key:
[1] = test system: differentiated CSM14.1 cells; assay: ATP content assay, thapsigargin-treated differentiated CSM14.1 cells; format: cell-based, rat
Method: Of the 26 compounds shown in Table 9, 16 were subsequently confirmed to protect differentiated CSM14.1 cells from TG-induced cell death. For these assays, CSM14.1 cells were differentiated by culture in 2% FBS for 7 days at non-permissive temperature of 39° C. […] CSM14.1 cells were plated at 1,500 cells per well in 96-well plates, and cultured overnight at 32° C. (permissive temperature; FIG. 14, left) or at 39° C. (non-permissive temperature, FIG. 14, right) for 7 days. […] ATP content was measured, and data were expressed as a percentage of control cells treated only with 1% DMSO (mean ±SD; n=3). Two percent FBS was used during differentiation, but all assays were performed in 10% FBS.
For PC12, cells were stimulated with 20 ng/ml NGF for five days; for C17.2, cells were stimulated with serum reduction, and 1% N2 incubation for three days; for CSM14.1, cells were cultured at 39° C. for 5-7 days.
CSM14.1 cells were plated at 1,500 cells per well in 96-well plates and cultured at 39° C. (non-permissive temperature) for 7 days. […] ATP content was measured and data were expressed as a percentage of control cells treated with only 1% DMSO.

phospho-p38 MAPK = assay: Thapsigargin-induced p38 MAPK phosphorylation in CSM14.1 cells (immunoblotting and MSD assay); format: cell-based, rat
Description: After confirming the pathway selectivity of compounds, additional downstream assays can be performed to map the specific signal transduction pathway inhibited by the compounds. In this regard, various antibody reagents are commercially available for assessing the status of the three major pathways known to be activated by ER stress: (1) PERK, (2) Ire1, and (3) ATF6 (Xu et al., J. Clinical Invest., 115:2656-2664, 2005). Immunoblotting experiments can be performed to assess the expression or phosphorylation (using phospho-specific antibodies) of marker proteins in these pathways. […] Cell lysates were prepared and analyzed by SDS-PAGE/immunoblotting using antibodies specific for phospho-c-Jun, phospho-eIF2α, phospho-p38 MAPK, and tubulin (a loading control). […] After two hrs, cell lysates were prepared, normalized for protein content, and either analyzed by SDS-PAGE/immunoblotting using anti-p38-MAPK pan-reactive antibody or phospho-specific antibody with ECL-based detection, followed by densitometry analysis of x-ray films, normalizing phosphor-p38 MAPK relative to total p38 MAPK, or analyzed using a meso-scale instrument from MSD and a procedure in which total p38 MAPK is captured on plates, and the relative amounts of phosphorylated protein were determined using phospho-specific antibody (MSD catalog #K15112D1). […]

Jnk-1 and Jnk-2 = assay: c-Jun activation by purified Jnk-1 and Jnk-2, in vitro kinase assay; format: biochemical; details: 50 μM compound
Method: C-Jun and p38 MAPK work downstream of the Ire1 pathway (see FIG. 21), we tested whether one of our hit compounds (6239507) inhibits autophosphorylation of any of kinases in this Ire1-ASK1-JNK/p38 MAPK pathway. […] An Ire1 autophosphorylation assay was performed. Immunoprecipitated Ire1 was incubated with DMSO (2%), 50 μM compound 6239507, or the positive control staurosporine (20 μM; STS) for 20 minutes at 30° C. followed by chilling on ice. 0.5 μCi of ^32P-γ-ATP was added to each tube and incubated at 30° C. for the indicated times. Kinase reactions were finished by adding sample buffer. Incorporation values of ^32P-γ-ATP were evaluated by a scintillation counter. An ASK1-MKK6-p38 coupled assay was also performed. Immunoprecipitated ASK1 was mixed with 1 μg MKK6 (Millipore) and 1 μg p38 MAPK (Sigma). Kinases were incubated with 2% DMSO, 50 μM compound 6239507, or 20 μM staurosporine (STS) in one tube for 20 minutes at 30° C. followed by ice chilling. 0.5 μCi of ^32P-γ-ATP was added to each tube and incubated at 30° C. for the indicated times. Kinase reactions were finished by adding sample buffer. Incorporation values of ^32P-γ-ATP were evaluated by a scintillation counter. C-Jun activation by purified Jnk-1 and Jnk-2 (Millipore) was confirmed with the same procedures.

SMILES | Protection of differentiated CSM14.1 cells from thapsigargin-induced death ([1]; compound 25 μM with 10 μM thapsigargin, Salubrinal 100 μM) | Cytoprotective activity, CSM 14.1 diff (Result) ([1]; thapsigargin 15 μM, compound ≦25 μM) | Thapsigargin-induced phosphorylation of p38MAPK (phospho-p38 MAPK; CSM14.1, immunoblotting and MSD assay, 10 μM, 25 μM hits) | IC50 (phospho-p38 MAPK; quantitative ELISA-methods, thapsigargin-treated CSM14.1, estimated, read-out: IC50 for p38MAPK phosphorylation) | JNK's activity on c-Jun (Jnk-1 and Jnk-2)
CCN(CC)c1ccc(C2Nc3ccccc3NC3=C2C(=O)CC(c2ccccc2)C3)cc1 (centres unmarked) [Compound 5962123, 6-(4-diethylaminophenyl)-9-phenyl-5,6,8,9,10,11-hexahydrobenzo[c][1,5]benzodiazepin-7-one] | confirmed | + (+indicates >50% rescue of cell viability relative to untreated cells not exposed to thapsigargin at compound concentration of ≦25 μM) | inhibits | < 5 µM | 
COc1ccc(C2CC(=O)C3=C(C2)Nc2ccccc2NC3c2cccc(Oc3ccccc3)c2)cc1OC (centres unmarked) [Compound 6239507] |  |  |  |  | does not modulate
